Data as given in patent US9370189B2, “Controlling Pseudomonas aeruginosa persister cells with GM-CSF” (priority 2012, dated 2016).

What was measured:
[1] = system: P. aeruginosa PDO300 biofilm; assay: Effect of GM-CSF on 24-h PDO300 biofilm, alone and with antibiotic; assay type: cell-based, Pseudomonas aeruginosa; settings: for average CFU/ml of biofilm cells reduced by: reduction, PDO300 biofilm
Procedure: This Example describes the treatment of biofilms made from P. aeruginosa PAO1, PDO300 and Escherichia coli K12, with GM-CSF introduced directly or together with an antibiotic to test the synergy.
In brief, after preparing an overnight culture, it was subcultured to an initial OD600 of 0.01 to a total volume of 20 mL M63 medium (for PAO1 and PDO300) or 20 ml LB medium (for E. coli K12) in a petri dish with 316L stainless steel coupons (1.75 cm×1 cm). The biofilm was grown for 24 h at 37° C. without shaking. After incubation, the coupons were washed by gently dipping in 0.85% NaCl twice using tweezers and were placed in new empty petri dishes.
To test the synergistic effects between GM-CSF (2.43 pg/mL or 0.17 pM) and antibiotics, a total of 8 coupons were analyzed. These 8 coupons were placed in 4 petri dishes (2 coupons in each dish). The two dishes were labeled as control and the other two as treatment samples. In the treatment samples, GM-CSF was added to 20 mL of 0.85% NaCl to a concentration of 2.43 pg/mL (or 0.17 pM). The control samples were supplemented with the same amount of PBS and BSA as present in the samples with 2.43 pg/ml (or 0.17 pM) GM-CSF. The coupons were incubated at 37° C. for 2 h.
After incubation, a control dish and a treatment dish was selected for studying the killing effect of 2.43 pg/ml GM-CSF on biofilm cells. Each coupon after gentle washing with 0.85% NaCl buffer, was placed in a test tube with 3 mL 0.85% NaCl buffer in each. They were sonicated (B200, Sinosonic Industrial Co., Ltd., Taiwan) for 4 mins to release the biofilm cells in the buffer. After vortexing for 1 min, they were plated on LB agar plates using drop plate method. The CFU was counted after incubation at 37° C. for 24 h to count the total number of viable cells. Furthermore, the synergistic effect of antibiotics with GM-CSF was evaluated with additional 3.5 h treatment with antibiotic at 37° C. After incubation, drop plate method was performed and the CFU was counted to understand if there is a synergistic effect.

[2] = system: P. aeruginosa PDO300; assay: Effect of GM-CSF on planktonic PDO300 cells (total viable cells and persisters) at exponential phase, alone and with antibiotic; assay type: cell-based, Pseudomonas aeruginosa; settings: for % change in avg. CFU/mL by GM-CSF (compared to GM-CSF free control) With 50 μg/mL Cip / % change in avg. CFU/mL by GM-CSF (compared to GM-CSF free control) With 50 μg/mL Tet / % change in avg. CFU/mL by GM-CSF (compared to GM-CSF free control) With 50 μg/mL Tob / % change in avg. CFU/mL by GM-CSF (compared to GM-CSF free control) With 200 μg/mL Gen: PDO300 exponential phase, 0.17 pM GM-CSF; for % change in avg. CFU/ml after adding factor + CIP / % change in avg. CFU/ml after adding factor + TET / % change in avg. CFU/ml after adding factor + TOB / % change in avg. CFU/ml after adding factor + GEN / average CFU/ml of persisters reduced by / average CFU/ml of total viable cells reduced by: planktonic PDO300; for % change in avg. CFU/ml after adding factor + CIP: 2.43 pg/mL GM-CSF with 50 μg/mL ciprofloxacin; for % change in avg. CFU/ml after adding factor + TET: 2.43 pg/mL GM-CSF with 50 μg/mL tetracycline; for % change in avg. CFU/ml after adding factor + TOB: 2.43 pg/mL GM-CSF with 50 μg/mL tobramycin; for % change in avg. CFU/ml after adding factor + GEN: 2.43 pg/mL GM-CSF with 200 μg/ml gentamicin; for average CFU/ml of persisters reduced by / average CFU/ml of total viable cells reduced by: reduction
Procedure: This Example describes the treatment of planktonic P. aeruginosa PAO1, PDO300 and Escherichia coli K12, with GM-CSF introduced directly or together with an antibiotic to test the synergy. All experiments were conducted with cells harvested from exponential phase subcultures with an optical density at 600 nm (OD600) of 0.3 to 0.4.
In brief, after preparing an overnight culture of the tested strain in 25 ml LB medium, a subculture was prepared with an OD600 of 0.01 in 50 mL LB medium. The subculture was incubated at 37° C. with shaking at 200 rpm for 3-4 h, till an OD600 of 0.3 to 0.4 was reached. The exponential phase subculture was then divided equally into two centrifuge tubes, each containing 25 mL of the subculture. The subcultures were washed twice with 0.85% NaCl buffer by vortexing and then centrifuging at 4° C., 8000 rpm for 10 min each time. The washed subcultures/cells were resuspended in 25 mL 0.85% NaCl buffer and vortexed gently for 1 min. One of the tubes of subculture was selected for isolation of persisters by adding 200 μg/mL ciprofloxacin (for PAO1 and PDO300 strains) or 100 μg/mL ampicillin (for E. coli K12 strain). After adding the antibiotic for persister isolation, the subculture was incubated at 37° C., shaking at 200 rpm for 3.5 h.
To test the effects of GM-CSF on viability of persisters, the second tube was used to quantify the total number of viable cells and 1 mL of the washed persister cells was divided into 6 microcentrifuge tubes; 3 were control and the other 3 were GM-CSF treatment samples. In the treatment samples, GM-CSF was added to a concentration of 2.43 pg/mL (or 0.17 pM), the same as found in healthy human bodies. The control samples were supplemented with the same concentration of PBS and BSA as present in 2.43 pg/mL (or 0.17 pM) GM-CSF samples.
After incubating at 37° C. for 1 h with shaking at 200 rpm, the samples were plated on LB agar plates (15 g/L bacto agar) using drop plate method. The agar plates were then incubated for 24 h at 37° C. to count the total number of persister cells and understand the effect of 0.17 pM GM-CSF on the viability of persister cells.
To test the synergy with antibiotics, the above samples were then incubated at 37° C. for 3.5 h with shaking at 200 rpm after adding the selected antibiotic. After 3.5 h, the CFU of samples was quantified in the same way to understand if there is any synergy between GM-CSF and antibiotic. Similar treatments were performed on the total population in exponential phase as well. Apart from exponential phase, the synergistic effects of GM-CSF with antibiotics on total viable cells and persisters were also evaluated at stationary phase but PBS buffer (pH=7.4) was used in the experiments instead of 0.85% NaCl solution. Moreover, the 1 h and 3.5 h treatments were performed as co-treatments.

[3] = 2.43 pg/ml GM-CSF in the presence of 50 μg/mL ciprofloxacin
[4] = 2.43 pg/ml GM-CSF in the presence of 50 μg/mL tetracycline
[5] = 2.43 pg/ml GM-CSF in the presence of 50 μg/mL tobramycin
[6] = 2.43 pg/ml GM-CSF in the presence of 200 μg/mL gentamicin

Which “% change in avg. CFU/ml after adding factor + CIP” value ([1]; 24-h PDO300 biofilm, 2.43 pg/mL GM-CSF with 200 μg/mL ciprofloxacin) does the source give for “GM-CSF: granulocyte macrophage-colony stimulating factor, a cytokine secreted by macrophages; recombinant human GM-CSF (R&D systems) in binding tests” here?
Its value is −14.0%.

What about the “% change in avg. CFU/ml after adding factor + TOB” value ([1]; 24-h PDO300 biofilm, 2.43 pg/mL GM-CSF with 200 μg/mL tobramycin) of the same substance?
Its value is −13.0%.

What about the “% change in avg. CFU/ml after adding factor + GEN” value ([1]; 24-h PDO300 biofilm, 2.43 pg/ml GM-CSF with 200 μg/mL gentamicin) of the same substance?
Its value is −10.8%.

What about the “% change in avg. CFU/ml after adding factor + TET” value ([1]; 24-h PDO300 biofilm, 2.43 pg/ml GM-CSF with 200 μg/mL tetracycline) of the same substance?
Its value is −7.3%.

And the “average CFU/ml of biofilm cells reduced by” value ([1]; 2.43 pg/mL GM-CSF alone, average of 2 experiments)?
Its value is 5.64%.

What about the “average CFU/ml of biofilm cells reduced by” value ([1]; 2.43 pg/mL GM-CSF in the presence of 200 μg/mL ciprofloxacin) of the same substance?
The value was 8.8%.

What about the “average CFU/ml of biofilm cells reduced by” value ([1]; 2.43 pg/mL GM-CSF in the presence of 200 μg/mL gentamicin) of the same substance?
Its value is 5.6%.

And the “average CFU/ml of biofilm cells reduced by” value ([1]; 2.43 pg/mL GM-CSF in the presence of 200 μg/mL tetracycline)?
Its value is 1.8%.

And the “average CFU/ml of biofilm cells reduced by” value ([1]; 2.43 pg/mL GM-CSF in the presence of 200 μg/mL tobramycin)?
Its value is 7.7%.

And the “% change in avg. CFU/mL by GM-CSF (compared to GM-CSF free control) With 50 μg/mL Cip” value ([2]; persisters)?
Its value is −22.2%.

And the “% change in avg. CFU/mL by GM-CSF (compared to GM-CSF free control) With 50 μg/mL Tet” value ([2]; persisters)?
Its value is −46.2%.

What about the “% change in avg. CFU/mL by GM-CSF (compared to GM-CSF free control) With 50 μg/mL Tob” value ([2]; persisters) of the same substance?
The value was −80.0%.

What about the “% change in avg. CFU/mL by GM-CSF (compared to GM-CSF free control) With 200 μg/mL Gen” value ([2]; persisters) of the same substance?
The value was −50.0%.

And the “% change in avg. CFU/ml after adding factor + CIP” value ([2]; persisters)?
Its value is −27.78%.

And the “% change in avg. CFU/ml after adding factor + TET” value ([2]; persisters)?
The value was −32.69%.

And the “% change in avg. CFU/ml after adding factor + TOB” value ([2]; persisters)?
Its value is −75.86%.

What about the “% change in avg. CFU/ml after adding factor + GEN” value ([2]; persisters) of the same substance?
The value was −50.94%.

What about the “average CFU/ml of persisters reduced by” value [2, 3] of the same substance?
Its value is 27.78%.

And the “average CFU/ml of total viable cells reduced by” value [2, 3]?
The value was 25.00%.

And the “average CFU/ml of persisters reduced by” value [2, 4]?
The value was 32.69%.

And the “average CFU/ml of total viable cells reduced by” value [2, 4]?
The value was 12.50%.

And the “average CFU/ml of persisters reduced by” value [2, 5]?
The value was 75.86%.

What about the “average CFU/ml of total viable cells reduced by” value [2, 5] of the same substance?
Its value is 8.33%.

And the “average CFU/ml of persisters reduced by” value [2, 6]?
The value was 50.94%.

And the “average CFU/ml of total viable cells reduced by” value [2, 6]?
Its value is 20.00%.

And the “% change in avg. CFU/mL by GM-CSF (compared to GM-CSF free control) With 50 μg/mL Cip” value ([2]; total viable cells)?
Its value is −25.0%.

What about the “% change in avg. CFU/mL by GM-CSF (compared to GM-CSF free control) With 50 μg/mL Tet” value ([2]; total viable cells) of the same substance?
The value was −12.5%.

And the “% change in avg. CFU/mL by GM-CSF (compared to GM-CSF free control) With 50 μg/mL Tob” value ([2]; total viable cells)?
The value was −8.3%.

And the “% change in avg. CFU/mL by GM-CSF (compared to GM-CSF free control) With 200 μg/mL Gen” value ([2]; total viable cells)?
The value was −20.0%.

What about the “% change in avg. CFU/ml after adding factor + CIP” value ([2]; total viable cells) of the same substance?
Its value is −25.00%.

And the “% change in avg. CFU/ml after adding factor + TET” value ([2]; total viable cells)?
The value was −12.50%.

And the “% change in avg. CFU/ml after adding factor + TOB” value ([2]; total viable cells)?
The value was −8.33%.

What about the “% change in avg. CFU/ml after adding factor + GEN” value ([2]; total viable cells) of the same substance?
The value was −20.00%.
